Assay results from patent US7932290B2, “Method for the treatment of metabolic disorders” (Wellstat Biologics Corporation, priority 2003, dated 2011).

How the values were obtained:
[1] = system: male ob/ob mouse model of Type II diabetes; assay: Antidiabetic effects in ob/ob mice (serum chemistry after 2 weeks daily oral dosing); type: in vivo; set-up: key to Glucose ± SEM: serum glucose in mg/dl; Triglycerides ± SEM / Free Fatty Acids ± SEM: unit not given here; settings: for Free Fatty Acids ± SEM / Triglycerides ± SEM / Glucose ± SEM: 60 mg/kg; for Glucose / Glucose (% of Control): 60 mg/kg daily oral, 2 weeks; for Glucose ± SEM: Table 15
Description: Obese (ob/ob) mice have a defect in the protein leptin, a regulator of appetite and fuel metabolism, leading to hyperphagia, obesity and diabetes.
Male obese (ob/ob homozygote) C57BL/6J mice, approximately 8 weeks of age, were obtained from Jackson Labs (Bar Harbor, Me.) and randomly assigned into groups of 5 animals each such that the body weights (45-50 g) and serum glucose levels (≧300 mg/dl in fed state) were similar between groups. A minimum of 7 days was allowed for adaptation after arrival. All animals were maintained under controlled temperature (23° C.), relative humidity (50±5%) and light (7:00-19:00), and allowed free access to standard chow (Formulab Diet 5020 Quality Lab Products, Elkridge, Md.) and water.
Treatment cohorts were given daily oral doses of vehicle (1% hydroxypropyl-methylcellulose), Compounds BI, CF, CA, CB, CC, or CD for 2 weeks. At the end of the treatment period 100 μl of venous blood was withdrawn in a heparinized capillary tube from the retro-orbital sinus of ob/ob mice for serum chemistry analysis.

[2] = system: Human PPARγ LBD fusion protein; assay: Transcription activation potential, GAL4 luciferase reporter in C3A cells; type: cell-based
Description: Cells were seeded in 24 well plates the day prior to transfection at 5×10^4−2×10^5 cells/well, depending upon cell type. Cells were transfected using Lipofectamine 2000 reagent from Invitrogen. A total of 0.8 μg DNA/well was added to 50 μL of Optimem Reduced Serum media (serum free; Gibco). Lipofectamine 2000 was added (2.5 μL/well) to another tube containing 50 μL of Optimem media. Plasmid DNA was added at a ratio of 4:3 (reporter:activator); where appropriate, salmon sperm DNA was substituted for activator expressing plasmid. […] DNA constructs containing the mouse PPARα or PPARγ LBD fused to the GAL4 DNA binding domain were also used. The two solutions were incubated at room temperature for 5 min, and then combined. The combined solution was incubated at room temperature for approximately 30 min. Cells were washed once with PBS, and 100 μL of transfection mix added to each well. Plates were incubated at 37° C. in a 5% CO2 incubator for 4.5 hr, followed by aspiration of the transfection mix, with plates refed using EMEM complete media (supplemented with 10% FBS, 1× Glutamine). 24 hr post-transfection, plates were treated with the appropriate compounds in EMEM complete media, followed by washing once with PBS and addition of 100 μL 1× reporter lysis buffer/well (Promega) 24 hr after treatment. Plates went through one freeze/thaw cycle prior to analysis. Approximately 10 μL of lysate was added to 100 μL of firefly luciferase substrate, mixed by pipetting, and analyzed on a luminometer for 10 s using the integration function (relative luciferase units/RLU) or on a Microbeta Trilux (luciferase counts per second/LCPS). Each treatment was performed in triplicate, and in multiple, separate experiments.

[3] = target: T1, Mouse PPARα LBD fusion protein (Mus musculus, UniProt P23204); assay: as above; type: cell-based
T1 sequence (P23204 239-466): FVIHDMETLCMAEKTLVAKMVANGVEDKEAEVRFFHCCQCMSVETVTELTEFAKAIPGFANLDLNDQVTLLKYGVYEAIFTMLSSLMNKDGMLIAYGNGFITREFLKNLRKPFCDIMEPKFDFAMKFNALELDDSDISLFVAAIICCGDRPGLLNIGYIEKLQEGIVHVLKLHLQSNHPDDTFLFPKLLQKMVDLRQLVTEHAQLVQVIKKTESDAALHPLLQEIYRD
Description: (§1) Cells were seeded in 24 well plates the day prior to transfection at 5×10^4−2×10^5 cells/well, depending upon cell type. Cells were transfected using Lipofectamine 2000 reagent from Invitrogen. A total of 0.8 μg DNA/well was added to 50 μL of Optimem Reduced Serum media (serum free; Gibco). Lipofectamine 2000 was added (2.5 μL/well) to another tube containing 50 μL of Optimem media. Plasmid DNA was added at a ratio of 4:3 (reporter:activator); where appropriate, salmon sperm DNA was substituted for activator expressing plasmid. The reporter plasmid used was pFR-Luc, which has the firefly luciferase gene under the control of a GAL4 UAS ([…]) containing promoter. The activator expressing plasmids contain yeast GAL4 DNA binding domain (dbd) fusion of either human PPARα ligand binding domain (LBD; a.a. 167-468) or human PPARγ LBD (a.a. 176-479). DNA constructs containing the mouse PPARα or PPARγ LBD fused to the GAL4 DNA binding domain were also used. The two solutions were incubated at room temperature for 5 min, and then combined. The combined solution was incubated at room temperature for approximately 30 min. Cells were washed once with PBS, and 100 μL of transfection mix added to each well. Plates were incubated at 37° C. in a 5% CO2 incubator for 4.5 hr, followed by aspiration of the transfection mix, with plates refed using EMEM complete media (supplemented with 10% FBS, 1× Glutamine). 24 hr post-transfection, plates were treated with the appropriate compounds in EMEM complete media, followed by washing once with PBS and addition of 100 μL 1× reporter lysis buffer/well (Promega) 24 hr after treatment. Plates went through one freeze/thaw cycle prior to analysis. Approximately 10 μL of lysate was added to 100 μL of firefly luciferase substrate, mixed by pipetting, and analyzed on a luminometer for 10 s using the integration function (relative luciferase units/RLU) or on a Microbeta Trilux (luciferase counts per second/LCPS). Each treatment was performed in triplicate, and in multiple, separate experiments.

[4] = system: db/db mice; assay: Antidiabetic effects in db/db mice, Example B (2 weeks daily oral dosing); type: in vivo, mouse; settings: for Glucose (% of Control) / Glucose: 2 weeks; for Glucose: nonfasting; for Free Fatty Acids ± SEM / Triglycerides ± SEM: serum, 2 weeks daily oral, dose not given in Table 17 (see Table 16)
Excerpt: db/db mice have a defect in leptin signaling, leading to hyperphagia, obesity and diabetes. Moreover, unlike ob/ob mice on a C57BL/6J background, db/db mice on a C57BL/KS background undergo failure of their insulin-producing pancreatic islet cells, resulting in progression from hyperinsulinemia (associated with peripheral insulin resistance) to hypoinsulinemic diabetes.
Male obese (db/db homozygote) C57BL/Ksola mice approximately 8 weeks of age, were obtained from Jackson Labs (Bar Harbor, Me.) and randomly assigned into groups of 5-7 animals such that the body weights (50-55 g) and serum glucose levels (≧300 mg/dl in fed state) were similar between groups; male lean (db/+heterozygote) mice served as cohort controls. A minimum of 7 days was allowed for adaptation after arrival. All animals were maintained under controlled temperature (23° C.), relative humidity (50±5%) and light (7:00-19:00), and allowed free access to standard chow (Formulab Diet 5008, Quality Lab Products, Elkridge, Md.) and water.
Treatment cohorts were given daily oral doses of Vehicle (1% hydroxypropylmethylcellulose), Compounds BI, CE, BT, BV, […] or Fenofibrate for 2 weeks. At the end of the treatment period 100 μl of venous blood was withdrawn in a heparinized capillary tube from the retro-orbital sinus of db/db mice for serum chemistry analysis.

[5] = target: T2, Human PPARα LBD fusion protein (Homo sapiens, UniProt Q07869); assay: Transcription activation potential, GAL4 luciferase reporter in C3A cells; type: cell-based
T2 construct: a.a; 167-468)
T2 sequence (Q07869 167-468): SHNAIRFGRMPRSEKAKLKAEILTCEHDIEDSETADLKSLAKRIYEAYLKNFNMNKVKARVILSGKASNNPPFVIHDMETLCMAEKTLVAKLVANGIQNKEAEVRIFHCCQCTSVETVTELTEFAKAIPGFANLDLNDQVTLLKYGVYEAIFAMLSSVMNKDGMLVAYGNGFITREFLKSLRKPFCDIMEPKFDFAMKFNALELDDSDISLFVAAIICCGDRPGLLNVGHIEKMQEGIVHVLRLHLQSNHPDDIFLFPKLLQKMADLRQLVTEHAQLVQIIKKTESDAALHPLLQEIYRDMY
Description: as §1

Compound: COC(=O)CC(=O)c1cccc(OCc2c(C)cccc2C)c1 [CB, Methyl 3-(3-(2,6-Dimethylbenzyloxy)phenyl)-3-oxopropionate]
- Free Fatty Acids ± SEM [1]: 2076.2 ± 169.0
- Triglycerides ± SEM [1]: 118.8 ± 18.0
- Glucose [1]: 494.4 ± 72.3 mg/dL
- Glucose (% of Control) [1]: 117.0 ± 17.0 % of Control
- Glucose ± SEM [1]: 494.4 ± 72.3

Compound: Cc1cccc(C)c1COc1cccc(C(C=O)CC(N)=O)c1 (stereo not drawn) [CC, 3-(3-(2,6,-Dimethylbenzyloxy)phenyl)-4-oxobutyramide]
- Triglycerides ± SEM [1]: 91.6 ± 13.4
- Glucose [1]: 444.4 ± 89.5 mg/dL
- Glucose (% of Control) [1]: 105.0 ± 21.0 % of Control
- Glucose ± SEM [1]: 444.4 ± 89.5

Compound: CN(CCOc1ccc(CC2SC(=O)NC2=O)cc1)c1ccccn1 (stereo not drawn) [Rosiglitazone, rosiglitazone, reference compound]
- transcription activation potential (luciferase) ± standard deviation ([2]; Table 22b line 1 μM, rosiglitazone at one-fifth the listed concentration (0.2 μM)): 124 ± 33.8 LCPS
- transcription activation potential (luciferase) ± standard deviation ([2]; Table 22b line 3 μM, rosiglitazone at one-fifth the listed concentration): 134.8 ± 47.8 LCPS
- transcription activation potential (luciferase) ± standard deviation ([2]; Table 22b line 10 μM, rosiglitazone at one-fifth the listed concentration): 626.6 ± 227 LCPS
- transcription activation potential (luciferase) ± standard deviation ([2]; Table 22b line 30 μM, rosiglitazone at one-fifth the listed concentration): 887.2 ± 338.2 LCPS
- transcription activation potential (luciferase) ± standard deviation ([2]; Table 22b line 100 μM, rosiglitazone at one-fifth the listed concentration): 1034.1 ± 400.5 LCPS

Compound: Cc1cccc(C)c1COc1cccc(C(=O)CCCC(=O)O)c1 [CD, 5-(3-(2,6-Dimethylbenzyloxy)phenyl)-5-oxopentanoic acid]
- Free Fatty Acids ± SEM [1]: 1961.8 ± 194.2
- Triglycerides ± SEM [1]: 119.0 ± 14.2
- Glucose [1]: 505.6 ± 63.5 mg/dL
- Glucose (% of Control) [1]: 119.0 ± 15.0 % of Control
- Glucose ± SEM [1]: 505.6 ± 63.5

Compound: Cc1cccc(C)c1COc1ccccc1 [CA, (2,6-Dimethylbenzyloxy)benzene]
- Free Fatty Acids ± SEM [1]: 1572.2 ± 118.0
- Triglycerides ± SEM [1]: 92.6 ± 13.7
- Glucose [1]: 402.6 ± 61.0 mg/dL
- Glucose (% of Control) [1]: 95 ± 14.0 % of Control
- Glucose ± SEM [1]: 402.6 ± 61.0

Compound: CC(C(=O)O)c1cccc(Oc2ccccc2)c1 (stereo not drawn) [fenoprofen, reference compound]
- transcription activation potential (luciferase) ± standard deviation ([3]; 100 μM, Table 21a): 4440 ± 213 RLU

Compound: COc1cc(C(=O)CCC(=O)O)ccc1OCc1c(C)cccc1C [BT, 4-[[4-(2,6-Dimethylbenzyloxy)-3-methoxy]phenyl]-4-oxobutyric acid]
- Glucose (% of Control) ([4]; 107 mg/kg daily oral): 99 ± 9 % of Control
- Glucose ([4]; 107 mg/kg daily oral): 684.3 ± 63.6 mg/dL
- Free Fatty Acids ± SEM [4]: 3897.7 ± 291.3 µM
- Triglycerides ± SEM [4]: 211.5 ± 21.5 mg/dL

Compound: CC(C)OC(=O)C(C)(C)Oc1ccc(C(=O)c2ccc(Cl)cc2)cc1 [Fenofibrate, reference compound]
- Glucose (% of Control) ([4]; 113 mg/kg daily oral): 81 ± 7 % of Control
- Glucose ([4]; 113 mg/kg daily oral): 563.2 ± 49.0 mg/dL
- Free Fatty Acids ± SEM [4]: 3318.5 ± 208.7 µM
- Triglycerides ± SEM [4]: 109.3 ± 9.1 mg/dL

Compound: Cc1cccc(Nc2cc(Cl)nc(SCC(=O)O)n2)c1C [Wy, reference compound]
- transcription activation potential (luciferase) ± standard deviation ([5]; 1 μM): 181.8 ± 47.6 LCPS
- transcription activation potential (luciferase) ± standard deviation ([5]; 3 μM): 153.1 ± 2.8 LCPS
- transcription activation potential (luciferase) ± standard deviation ([5]; 10 μM): 315.4 ± 36.5 LCPS
- transcription activation potential (luciferase) ± standard deviation ([5]; 30 μM): 648.6 ± 47.5 LCPS
- transcription activation potential (luciferase) ± standard deviation ([5]; 100 μM): 412.23 ± 114 LCPS
- transcription activation potential (luciferase) ± standard deviation ([3]; 1 μM, Table 20a): 406.73 ± 80.11 LCPS
- transcription activation potential (luciferase) ± standard deviation ([3]; 3 μM, Table 20a): 295.8 ± 40.31 LCPS
- transcription activation potential (luciferase) ± standard deviation ([3]; 10 μM, Table 20a): 324.37 ± 11.06 LCPS
- transcription activation potential (luciferase) ± standard deviation ([3]; 30 μM, Table 20a): 414 ± 122.52 LCPS
- transcription activation potential (luciferase) ± standard deviation ([3]; 100 μM, Table 20a): 325.3 ± 91.83 LCPS
- transcription activation potential (luciferase) ± standard deviation ([3]; 100 μM, Table 21a): 55972 ± 5162 RLU
- transcription activation potential (luciferase) ± standard deviation ([3]; 200 μM, Table 20a): 115.2 ± 21.52 LCPS
